Experimental data published in article PMC8398231 (Pharmaceutics, 2021).

What was measured:
[1] = Stability of radiolabeled kit in vehicle (radiochemical purity over time); format: physicochemical; details: final formulation (acetate buffer, PBS, 0.9% NaCl)
Method: For process validation, the [^68Ga]Ga-RM2 kits were subjected to full quality control. […] Molar activity was calculated after linear regression of the calibration curve with [^natGa]Ga-RM2 (Life Molecular Imaging). The pH was determined using a pH-meter. Volumetric activity was determined by dividing activity obtained by the final volume. The [^68Ga]Ga-RM2 was also subjected to endotoxin testing (Charles Rivers), sterility testing and radionuclidic purity and filter integrity tests. Results were then compared to the production capacity provided by the module route currently running in our NCT03604757 and NCT03606837 studies.
After optimization, ^68Ga radiolabeling of the RM2 kits was carried out in three consecutive batches, and they all complied with the requirements of the monograph of the European Pharmacopoeia (as described for [^68Ga]Ga-edotreotide) (Figure 4 and Table 1). The evolution of the radiochemical purity over time was also checked.

[2] = Lipophilicity, water-octanol partition/distribution coefficient method; format: physicochemical; details: 1-octanol/phosphate buffered saline; shake-flask 1-octanol/PBS pH 7.4 (500 µL each), 3.7 MBq, stirred 5 min at room temperature, centrifuged, gamma counter, decay-corrected; three experiments in triplicate, mean ± SD
Method: The lipophilicity of the [^68Ga]Ga-RM2 was assessed by the water-octanol partition/distribution coefficient method. In a centrifuge tube 500 µL of 1-octanol was added to 500 µL of phosphate buffered saline (pH 7.4) containing the radiolabeled peptide (3.7 MBq; ≈10 µL). After equilibrium, the solution was vigorously stirred for 5 min at room temperature and subsequently centrifuged (4000 rpm, 3 min) to yield two immiscible layers. Aliquots of 100 µL were taken from each layer and the radioactivity in the samples was determined by a gamma counter (Gamma Wizard2 Counter 2480; Perkin Elmer, Villebon sur Yvette, France; acquisition time of one minute, energy window centered on the peak of 511 keV). The Log D7.4 was determined by the Log ratio (cpm (counts per minute) organic phase/cpm aqueous phase). The cpm values were decay-corrected. Experiments were performed three times in triplicates.

PC-3 cells = assay: Cellular efflux of internalized radioactivity from PC-3 cells; format: cell-based
Method: For in vitro experiments, PC-3 cells were cultured in DMEM/F12 and seeded in 6-well plates at a density of 10^6 cells per well 18 h before carrying out the experiments and incubated overnight with complete medium.
Three minutes before the end of the incubation time, internalization was stopped by removing medium and washing cells with ice-cold PBS. The membrane-bound fraction was removed by rinsing cells with 2 mL acetate buffer (pH = 5; 20 mM) for 2 min and cells were then rinsed ice-cold PBS. Next, 2 mL of complete medium was then added to each well, and PC-3 cells were incubated at 37 °C for 5, 15, 30 and 45 min. At each time point, efflux was stopped by removing medium and cells were rinsed twice with ice-cold PBS. Finally, the cells were treated with 1M NaOH and the radioactivity was measured using a gamma counter.

PC-3 = details: other kit formulation without scavenger and bulking agent; cited from earlier work
Excerpt: Another kit formulation of RM2 has been developed but without a scavenger and a bulking agent for lyophilization. […] Therefore, our innovative formulation provides longer stability at higher temperature and higher uptake in GRP-R-expressing PC-3 cells.

GRP-R = molecular target: T1, GRP-R (Homo sapiens, UniProt P30550); assay: Intracellular calcium mobilization assay in PC-3 cells; format: cell-based; details: fluo-8AM, 10^-11 M to 10^-5 M, room temperature, pH 7.4
T1 construct: higher uptake in GRP-R-expressing PC-3 cells; endogenous in cells; host or cells: PC-3 cells
T1 sequence (P30550 whole entry): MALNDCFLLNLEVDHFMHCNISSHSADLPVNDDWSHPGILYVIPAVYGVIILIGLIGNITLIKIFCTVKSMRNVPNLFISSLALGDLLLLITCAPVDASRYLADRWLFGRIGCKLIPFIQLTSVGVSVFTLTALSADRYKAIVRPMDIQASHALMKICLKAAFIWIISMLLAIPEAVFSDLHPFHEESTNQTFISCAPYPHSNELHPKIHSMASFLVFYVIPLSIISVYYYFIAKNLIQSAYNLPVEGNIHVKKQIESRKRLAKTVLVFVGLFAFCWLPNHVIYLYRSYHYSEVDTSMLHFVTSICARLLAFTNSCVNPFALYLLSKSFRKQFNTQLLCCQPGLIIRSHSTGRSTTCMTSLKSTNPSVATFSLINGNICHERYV
Method: For calcium imaging assays, PC-3 cells were cultured as previously described. The day before the experimentation, cells were grown on 15 mm Thermanox® glass slides (Thermofischer, Waltham, MA, USA,) in 6-wells plates at the density of 5.10^5 cells in 500 µL culture medium. Glass slides were individually loaded for 30 min in dark into 500 µL loading solution containing 10 µL fluo-8AM, 10 µL pluronic acid, 50 µL probenecid and 430 µL DMEM/F12 medium. […] A 10-min delay was applied to remove extracellular fluo-8AM and to enable fluo-8AM intracellular hydrolysis. Growing concentrations (10^−11 M to 10^−5 M) of [^natGa]Ga-RM2 were added via a rapid perfusion system.

| Stability in vehicle (radiochemical purity over time) [1] | logD [2] | Compound | Efflux of the internalized activity (PC-3 cells; 30 min internalization at 37 °C, acid wash, then 5 min at 37 °C in complete medium) [%] | Efflux (%) (PC-3 cells; 45 min post-internalization at 37 °C) | Specific uptake in PC-3 (% of cell-associated radioactivity) (PC-3) [%] | Intracellular calcium mobilization (ΔF/F) (GRP-R) |
| --- | --- | --- | --- | --- | --- | --- |
| stable in vehicle up to 3 h | -2.54 ± 0.04 | CC(C)C[C@H](NC(=O)C[C@H](O)[C@H](CC(C)C)NC(=O)[C@H](Cc1c[nH]cn1)NC(=O)CNC(=O)[C@@H](NC(=O)[C@H](C)NC(=O)[C@H](Cc1c[nH]c2ccccc12)NC(=O)[C@H](CCC(N)=O)NC(=O)[C@@H](Cc1ccccc1)NC(=O)CN1CCC(NC(=O)CN2CCN(CC(=O)O)CCN(CC(=O)O)CCN(CC(=O)O)CC2)CC1)C(C)C)C(N)=O [[^68Ga]Ga-RM2, metal not drawn] | 64.3 ± 6.5 | 70.8 ± 11.1 | 5 | – |
| – | – | bombesin | – | – | – | effectively induced calcium mobilization in a dose-dependent manner |
